Test results: publication PMC10714400, “Antimicrobial Peptide–Peptoid Hybrids with and without Membrane Disruption” (ACS Infectious Diseases, 2023)
≈ marks a conversion by molar mass, not a printed value. Where two headings read alike, the source gives them in different places. Where a SMILES comes first, the peptide text is derived from it. [ ]: non-standard residue; d: D form. Nleu = CC(C)CNCC(=O)O; Nlys = NCCCCNCC(=O)O

How the values were obtained:
[1] = system: K. pneumoniae NCTC418
How it was run: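 MTT added (20–30 min, room temperature); MIC read by eye as lowest concentration inhibiting visible growth (yellow). Polymyxin B positive control from 16 μg/mL.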

[2] = system: PA14 4.13 (phoQ); conditions: for MIC P. aeruginosa PA14 4.13: Table S3; for MIC P. aeruginosa PA14 4.13, […] MH at pH 8.5 / MIC P. aeruginosa PA14 4.13: […] MH at pH 8.5
How it was run: (§1)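 MIC read visually after MTT staining: lowest compound concentration preventing visible growth (yellow wells). Inoculum ~5 × 10^5 CFU per well in MH broth; static incubation at 37 °C for ca. 18 h.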

[3] = system: E. cloacae
How it was run: as §1

[4] = system: E. coli W3110; conditions: for MIC E. coli W3110, […] MH at pH 7.4 / MIC E. coli W3110, […] MH at pH 8.5 / MIC E. coli W3110, full MH at pH 7.4 / MIC E. coli W3110, full MH at pH 8.5: CSV
How it was run: as §1

[5] = system: E. coli W3110; test: NPN outer membrane permeability assay; type: cell-based, Escherichia coli
Procedure: Figure 4 Interactions of peptide–peptoid hybrids with bacterial outer and inner membranes of E. coli. (a, b) NPN outer membrane permeability assay. E. coli W3110 bacteria were treated with increasing compound concentrations in the presence of 10 μM NPN. The fluorescence intensity (λex = 340 nm, λem = 415 nm) was measured within 5 min. Data represent mean ± SD, n = 3. (c, d) DiSC3(5) inner membrane depolarization assay. E. coli W3110 bacteria were treated with increasing compound concentrations in the presence of 2 μM DiSC3(5). The fluorescence intensity (λex = 610 nm, λem = 660 nm) was measured within 5 min after treatment, and the data represent mean ± SD, n = 3.
A single colony of P. aeruginosa PAO1 and E. coli W3110 was grown overnight while being shaken (150 rpm) in LB-broth (5 mL) at 37 °C. 100 μL of the overnight culture was regrown in 10 mL of LB broth with shaking (200 rpm) to the exponential phase (OD600 = 1, corresponding to 10^9 CFU/mL). Bacteria were washed three times with HEPES buffer (5 mM HEPES, 5 mM glucose, pH 7.4), but not diluted yet to their final concentration. 200 μL of peptide samples was added to the first well of 96-well plates (black wells, flat bottom, BRAND GmbH Wertheim, Germany), 100 μL of HEPES/glucose buffer with 10 μM N-phenyl-1-naphthylamine (NPN, purchased from Acros Organics) was added in all the wells, and the compounds were diluted serially by 1/2 (add a control with a final volume of 200 μL with 10 μM NPN in buffer only). Ca. 10 min before the measurement and the final dilution of the bacteria, the plates and the 10 μM NPN in HEPES/glucose buffer (for bacteria dilution) were incubated at 37 °C (prior to the dilution of the bacteria with buffer containing NPN 10 μM). Later, the bacteria were diluted to OD600 = 0.5 with the NPN in HEPES/glucose buffer. 100 μL of the bacterial suspension was added to each well. In this case, the final OD of bacteria was 0.25, the final concentration of the desired compound 64 μg/mL, and NPN 10 μM. The control wells are buffer containing NPN (10 μM, 200 μL) and bacterial suspension containing NPN in HEPES buffer. The plate was measured with a Tecan instrument Infinite M1000 within 5 min. The plate was enabled to shake for 5 s before measurement. The excitation wavelength used was 340 ± 5 nm, and emission wavelength was 415 ± 5 nm. The assay was repeated at least three times.

[6] = Circular dichroism, α-helical content; type: physicochemical; conditions: 0.1 mg/mL; for CD %α with 5 mM DPC: 10 mM phosphate buffer pH 7.4, 5 mM DPC; for CD %α with 20% TFE: 10 mM phosphate buffer pH 7.4, 20% TFE

## CC(C)CN(CC(N)=O)C(=O)CN(CC(C)C)C(=O)CN(CC(C)C)C(=O)CN(CCCCN)C(=O)CN(CC(C)C)C(=O)CN(CC(C)C)C(=O)CN(CCCCN)C(=O)CN(CC(C)C)C(=O)CN(CC(C)C)C(=O)CN(CCCCN)C(=O)CNCCCCN [EB11, kkllkllklll] (H-[Nlys][Nlys][Nleu][Nleu][Nlys][Nleu][Nleu][Nlys][Nleu][Nleu][Nleu]-NH2)
[1]; CSV, […] MH at pH 7.4
  MIC K. pneumoniae NCTC418, […] MH at pH 7.4: 32 ug/mL
[1]; CSV, […] MH at pH 8.5
  MIC K. pneumoniae NCTC418, […] MH at pH 8.5: 32 ug/mL
[1]; CSV, full MH at pH 7.4
  MIC K. pneumoniae NCTC418, full MH at pH 7.4: >32 ug/mL
[1]; CSV, full MH at pH 8.5
  MIC K. pneumoniae NCTC418, full MH at pH 8.5: >32 ug/mL
[1]; Table S2, […] MH, pH 7.4
  MIC K. pneumoniae NCTC418 […] 7.4: 32 µg/mL (≈ 24.2 µM)
[1]; Table S2, […] MH, pH 8.5
  MIC K. pneumoniae NCTC418 […] 8.5: 32 µg/mL (≈ 24.2 µM)
[1]; Table S2, full MH, pH 7.4
  MIC K. pneumoniae NCTC418 Full MH 7.4: > 32 µg/mL
[1]; Table S2, full MH, pH 8.5
  MIC K. pneumoniae NCTC418 Full MH 8.5: > 32 µg/mL
[2]; CSV
  MIC P. aeruginosa PA14 4.13, […] MH at pH 8.5: 6 ug/mL
[2]
  MIC P. aeruginosa PA14 4.13: 4 to 8 µg/mL
[2]; diluted MH ([…] MH) at pH 8.5 (Table 2 footnote b)
  MIC PA14 4.13 (phoQ): 4 to 8 µg/mL
[3]; CSV, […] MH at pH 8.5
  MIC E. cloacae, […] MH at pH 8.5: 16 ug/mL
[3]; Table S3, […] MH at pH 8.5
  MIC E. cloacae: 16 µg/mL (≈ 12.1 µM)
[4]
  MIC E. coli W3110, […] MH at pH 7.4: 8 ug/mL
  MIC E. coli W3110, […] MH at pH 8.5: 3 ug/mL
  MIC E. coli W3110, full MH at pH 7.4: >32 ug/mL
  MIC E. coli W3110, full MH at pH 8.5: >32 ug/mL
[4]; E. coli W3110, […] MH at pH 8.5, up to 300 mM NaCl
  Antibacterial activity as a function of NaCl concentration: strongly reduced
[4]; Table S2, […] MH, pH 7.4
  MIC E. coli W3110 […] 7.4: 8 µg/mL (≈ 6.05 µM)
[4]; Table S2, […] MH, pH 8.5
  MIC E. coli W3110 […] 8.5: 2 to 4 µg/mL
[4]; Table S2, full MH, pH 7.4
  MIC E. coli W3110 Full MH 7.4: > 32 µg/mL
[4]; Table S2, full MH, pH 8.5
  MIC E. coli W3110 Full MH 8.5: > 32 µg/mL
[5]; E. coli W3110, 10 μM NPN
  Outer membrane permeabilization (NPN): significant outer membrane permeabilization
[6]; DichroWeb, Contin-LL
  CD %α with 5 mM DPC: 7%
  CD %α with 20% TFE: 8%
[6]; Table S2
  CD %α with 5 mM DPC: 7%
  CD %α with 20% TFE: 8%

## CC(C)C[C@H](NC(=O)[C@H](CC(C)C)NC(=O)[C@H](CC(C)C)NC(=O)[C@H](CCCCN)NC(=O)[C@H](CC(C)C)NC(=O)[C@H](CC(C)C)NC(=O)CN(CCCCN)C(=O)CN(CC(C)C)C(=O)CN(CC(C)C)C(=O)CN(CCCCN)C(=O)CNCCCCN)C(N)=O [EB5, kkllkLLKLLL] (H-[Nlys][Nlys][Nleu][Nleu][Nlys]LLKLLL-NH2)
[1]; NCTC418, 4 h, pH 7.4
  MIC K. pneumoniae NCTC418, full MH at pH 7.4: >32 ug/mL
[1]; NCTC418, 4 h, pH 8.5
  MIC K. pneumoniae NCTC418, full MH at pH 8.5: 24 ug/mL
  MIC K. pneumoniae NCTC418 Full MH 8.5: 16 to 32 µg/mL
[2]; CSV
  MIC P. aeruginosa PA14 4.13, […] MH at pH 8.5: 2 ug/mL
[2]; CSV, full MH at pH 7.4
  MIC P. aeruginosa PA14 4.13, full MH at pH 7.4: 8 ug/mL
[2]; MH pH 7.4, 16–20 h at 37 °C
  MIC PA14 4.13 (phoQ): 8 µg/mL (≈ 6.05 µM)
[2]
  MIC P. aeruginosa PA14 4.13: 2 µg/mL (≈ 1.51 µM)
[3]; 4 h, pH 7.4
  MIC E. cloacae, full MH at pH 7.4: 12 ug/mL
[3]; 4 h, pH 8.5
  MIC E. cloacae: 4 µg/mL (≈ 3.03 µM)
[3]; pH 7.4
  MIC E. cloacae: 8 to 16 µg/mL
[4]
  MIC E. coli W3110, […] MH at pH 7.4: 2 ug/mL
  MIC E. coli W3110, […] MH at pH 8.5: 2 ug/mL
  MIC E. coli W3110, full MH at pH 7.4: 2 ug/mL
  MIC E. coli W3110, full MH at pH 8.5: >32 ug/mL
[4]; diluted MH ([…] MH, pH 8.5) per Table 1 footnote b, 16–20 h at 37 °C
  MIC E. coli W3110 […]: 2 µg/mL (≈ 1.51 µM)
[5]; not told
  Outer membrane permeabilization (NPN): permeabilized the outer membrane
